Columns and labels:
[1] = test system: TNF-α; test: TNF-α production by lipopolysaccharide-activated human PBMC, cytometric sandwich ELISA; format: cell-based; details: 10^-8 M to 10^-5 M, Salmonella abortus equi lipopolysaccharide 5 μg/ml, 24 hours, FIGS. 4 and 5
Method: (§1) This liposaccharide is an endotoxin located on the outer membrane of Gram-negative bacteria. In particular, it stimulates the production of proinflammatory cytokines by the mononuclear cells (monocytes, microphages) of the infected host.
(§2) This test is carried out in the following manner. […]
(§3) More specifically, the detection of the cytokines present in the samples is measured with the aid of a “sandwich” type cytometric ELISA assay. Microparticles (beads) of polystyrene (of 6 different types, each being labelled with a different quantity of fluorescent dye whose FL-3 emission wavelength is about 650 nm) are coupled to an antibody specific for one of the […] TNFα, IL-2, IL-10. […] The cytokines captured are detected with the aid of a directly performed immunological test which uses 2 antibodies specific for each cytokine, coupled to phycoerythrin which emits at an FL-2 wavelength of about 585 nm (Ab-PE). After washing the excess Ab-PE, the presence of the cytokines is measured by flow cytometry.
(§4) The fluorescence is measured based on the 6 FL-3 fluorescence intensities and based on the FL-2 wavelength. The intensity of the […] fluorescence makes it possible to determine the quantity of each cytokine present in the sample (in comparison with standard curves). […]

[2] = test system: RDM4 cell cultures (AKR mouse lymphomas); test: Protection of RDM4 cells subjected to ionizing radiation, Uptiblue test; format: cell-based; details: for number of living cells after irradiation (Uptiblue fluorescence, A.F.U.): 0.12 to 20 μg/ml added two hours before X rays 15 MV, 8 Gy, sixth day, FIG. 6
Method: This test consists in measuring, in the presence or in the absence of norbadione in diacid or dipotassium salt form, the rate of survival of cells treated with ionizing radiation, with the aid of selective indicators for certain cellular organelles such as mitochondria.
Samples of norbadione in diacid or dipotassium salt form are added to RDM4 cell cultures (AKR mouse lymphomas) in increasing concentrations (from 0.12 to 20 μg/ml), two hours before irradiation. This is carried out by exposing microtest plates containing the cells to X rays of 15 MV, at 8 Gy, the culture medium being unchanged.
The number of living cells is determined on the sixth day by means of the Uptiblue test (which consists in measuring the micochondrial activity of the cells). The Uptiblue reagent (reazurin, also marketed under the ALAMAR BLUE trade mark) is a coloured oxidation-reduction indicator. The reazurin (blue and nonfluorescent) is reduced to resorufin (pink and fluorescent) by living cells.
Experimentally, the Uptiblue (diluted ¼ in the culture medium) is added to the cells in an amount of 20 μl per 200 μl well. After incubating for 4 hours at 37° C., the fluorescence is measured at a wavelength of 590 nm, after excitation at a wavelength of 530 nm with the aid of a fluorescence microplate reader (Fluorolite 1000, Dynex). The fluorescence intensity is proportional to the number of living cells. It is expressed as “arbitrary fluorescence unit”. This value depends on the setting of the apparatus (in particular the voltage) and the background noise (due to the fluorescence emitted by wells not containing cells, but containing Uptiblue). The latter value is subtracted from the experimental values.
The results of this test are grouped together in FIG. 6, which represents the fluorescence observed which makes it possible to quantify the number of living cells, the said fluorescence being expressed as arbitrary fluorescence units on the y-axis of the graph (A.F.U) as a function of the concentration of norbadione in the diacid or dipotassium salt form, noted [Nor-A] or [Nor-B] (in μg/ml).

[3] = test system: IL-10; test: IL-10 production by lipopolysaccharide-activated human PBMC, cytometric sandwich ELISA; format: cell-based; details: 10^-8 M to 10^-5 M, Salmonella abortus equi lipopolysaccharide 5 μg/ml, 24 hours, FIGS. 4 and 5
Method: as §1, §2, §3, §4

[4] = test system: Human thyroid carcinoma K1 cells; test: Protection of K1 cells against cisplatin, sulphorhodamine B test; format: cell-based; details: norbadione 20 μg/ml added two hours before cisplatin 12 to 100 μM, two days, FIG. 7
Method: This test consists in measuring, in the presence of norbadione in the diacid or dipotassium salt form, the rate of survival of cells treated with cisplatin.
Human thyroid carcinoma K1 cells are cultured in flat-bottomed 96-well microtest plates in the presence of a single concentration (20 μg/ml) of norbadione in the diacid or dipotassium salt form. After two hours, a genotoxic agent, cisplatin, is added to the culture medium in increasing concentrations (from 12 to 100 μm). Two days later, the number of cells is determined by means of the sulphorhodamine B (termed SRB) test, which measures the quantity of cellular proteins.
Sulphorhodamine B (termed SRB) is an anionic dye which binds electrostatically to cellular proteins. This test is frequently used for the evaluation of the cytotoxic and cytostatic activities of novel antitumour drugs.
Further information relating to this technique is available in the article by Papazisis et al. “Optimization of the sulforhodamine B colorimetric assay”, J. Immunol. Meth, 208, pages 151-158, 1997 [8].
The results of this test are grouped together in FIG. 7, which represents the fluorescence observed after addition of SRB (expressed as arbitrary fluorescence units) as a function of the cisplatin concentration (in μM).

[5] = test system: thymidine; test: Thymidine degradation test, chemical oxidant stress (Fenton's reagent), competition ELISA of remaining thymidine; format: biochemical; details: dipotassium salt (Nor-B); Fenton's reagent 0.35 mM FeSO4/EDTA, 35 mM H2O2; thymidine 70 μM, antioxidant 20 μM; FIG. 3; compared with conventional antioxidants (1)-(6)
Method: (§5) The evaluation of the antioxidant activity of the dipotassium salt of norbadione was carried out by a screening test in vitro.
(§6) This test is based on the monitoring of the degradation of thymidine subjected to various oxidant stresses in the presence of various antioxidant agents, which are norbadione in dipotassium salt form (called Nor-B in FIGS. 1 to 3) in accordance with the invention, and the following antioxidant agents: quercitin (1), fisetin (2), myricetin (3), catechin (4), 7-hydroxy-4-methyl-8-nitrocoumarin (5), Trolox (6) in FIGS. 1 to 3.
(§7) In the presence of an antioxidant, thymidine is protected more or less effectively according to the nature of the said antioxidant. The efficacy of the antioxidant is quantified by assaying the remaining thymidine (quantified as % on the y-axis of the graph) with the aid of an immunoenzymatic assay of the so-called “competition” ELISA type. This ELISA assay consists in producing competition, for binding to a thymidine-specific monoclonal antibody attached to a solid phase, between the thymidine remaining at the end of test and the thymidine labelled with an enzyme (acetylcholine esterase). After washing, the bound enzyme is quantified by colorimetric detection with the aid of 5,5′-dithiobis(2-nitrobenzoic acid) (termed Ellmann's reagent) and in the presence of […]. […]

[6] = test system: thymidine; test: Thymidine degradation test, ultraviolet irradiation at 254 nm with H2O2, competition ELISA of remaining thymidine; format: biochemical; details: dipotassium salt (Nor-B); UV 254 nm (1.75 J/cm^2), 5 mM H2O2; thymidine 70 μM, antioxidant 100 μM; FIG. 2; compared with conventional antioxidants (1)-(6)
Method: as §5, §6, §7

[7] = test system: rat aorta rings; test: Relaxation of rat aorta rings induced by SYN-1 (3-morpholinosydnonimine, NO radicals); details: dipotassium salt form, 100 μM; FIG. 9
Method: (§8) The objective of this example is to show the antioxidant activity of norbadione in the dipotassium salt form on rat aorta rings.
During a second series of tests, rat aorta rings are subjected to SYN-1 (3-morpholinosydnonimine), which generates NO radicals, inducing relaxation of the rat aorta rings, and the rate of relaxation of these rings is measured. In the presence of norbadione, the rate of relaxation of the rings is measured under the same conditions as those mentioned above. The results are presented in FIG. 9, which represents the rate of vascular relaxation of the rings R(%) as a function of the Sin−1 concentration [Sin−1] (μM), in the absence of norbadione (curve a) and in the presence of norbadione (100 μM) (curve b).

[8] = test system: rat aorta rings; test: Contraction of rat aorta rings induced by pyrogallol (superoxide radicals); details: dipotassium salt form, 100 μM; FIG. 8
Method: as §8
During a first series of tests, rat aorta rings are subjected, in a first instance, to pyrogallol, which generates superoxide radicals, these radicals inducing contraction of the rat aorta rings and the rate of contraction of these rings is measured in the absence of norbadione.
In a second instance, the same operations are repeated, under the same conditions as those mentioned above, this time in the presence of norbadione.
The results are grouped together in FIG. 8, which represents the rate of vascular contraction of the rings C(g) as a function of the concentration of pyrrogallol [Pyr] (μM), in the absence of norbadione (curve a) and in the presence of norbadione at the concentration of 100 μM (curve b).

[9] = test system: thymidine; test: Thymidine degradation test, gamma irradiation (caesium 137), competition ELISA of remaining thymidine; format: biochemical; details: dipotassium salt (Nor-B); gamma irradiation 3 h 30 min, 137Cs; thymidine 15 μM, antioxidant 12 μM; FIG. 1; compared with quercetin, fisetin, myricetin, catechin, 7-hydroxy-4-methyl-8-nitrocoumarin, Trolox
Method: as §5, §6, §7

Compound	production of the cytokine TNF-α (percentage response relative to control) [1]	number of living cells after irradiation (Uptiblue fluorescence, A.F.U.) ([2]; RDM4 cells)	number of living cells after irradiation (Uptiblue fluorescence, A.F.U.) ([2]; RDM4 cells, listed as norbadione diacid form)	production of the cytokine IL-10 (percentage response relative to control) [3]	cytotoxicity of cisplatin in the presence of norbadione (SRB test) [4]	number of living cells after irradiation (Uptiblue fluorescence, A.F.U.) ([2]; RDM4 cells, listed as norbadione disalt form)	antioxidant power (percentage of thymidine remaining after oxidant stress) [5]	number of living cells after irradiation (Uptiblue fluorescence) at the highest concentration ([2]; RDM4 cells, X rays 8 Gy, from a norbadione concentration of 20 μg/ml)	effect on the growth and the viability of the RDM4 cells ([2]; without irradiation, even at 20 μg/ml)	antioxidant power (percentage of thymidine remaining after oxidant stress) [6]	relaxation of the aorta rings caused by SYN-1 [7]	contraction of the aorta rings caused by pyrogallol [8]	antioxidant power (percentage of thymidine remaining after oxidant stress) [9]
O=C1O/C(=C(/C(=O)O)c2ccc(O)cc2)C(O)=C1c1cc2c3c(c(O)cc(C4=C(O)/C(=C(\C(=O)O)c5ccc(O)cc5)OC4=O)c3c1)OC2=O [Nor-A, norbadione]	significant dose-dependent reduction	large increase	protects the cells against ionizing radiation in a significant and dose-dependent manner	significant dose-dependent reduction	very markedly attenuated								
O=C1O/C(=C(/C(=O)[O-])c2ccc(O)cc2)C(O)=C1c1cc2c3c(c(O)cc(C4=C(O)/C(=C(\C(=O)[O-])c5ccc(O)cc5)OC4=O)c3c1)OC2=O.[K+].[K+] [Nor-B, norbadione]	significant dose-dependent reduction	large increase		significant dose-dependent reduction	very markedly attenuated	protects the cells against ionizing radiation in a significant and dose-dependent manner							
norbadione							best antioxidant power	decreases considerably	without effect	best antioxidant power	reduced	suppressed	best antioxidant power
